# From patent US20240277743A1, “RESTORING PHYSIOLOGY WITH SMALL MOLECULE MIMICS OF MISSING PROTEINS” (The Board of Trustees Of The University Of Illinois, priority 2014, published 2024)
# Experiments:
# trk1Δtrk2Δ yeast = experiment: Functional complementation of a protein with a small molecule assay (rescue broth microdilution); format: cell-based, Saccharomyces cerevisiae
# Text: (§1) Broth microdilution minimum inhibitory concentration (MIC) assay. The protocol for the MIC broth microdilution assay was adapted from the Clinical and Laboratory Standards Institute document M27-A2 and performed as previously described. Gray, K. C. et. al. Proc. Natl. Acad. Sci. U.S.A. 109, 2234-2239 (2012); Palacios, D. S. et al. J. Am. Chem. Soc. 129, 13804-13805 (2007).
# (§2) Functional complementation of a protein with a small molecule assay. The protocol for the rescue broth microdilution assay was conducted as described in the MIC assay above with the following additions: trk1atrk2Δ yeast were grown in high potassium (100 mM) YPAD liquid media overnight and transferred to normal potassium YPAD liquid media containing vehicle or the indicated concentration of AmB.
# trk1Δtrk2Δ cells = experiment: Disc diffusion assay of growth rescue; format: cell-based, Saccharomyces cerevisiae; conditions: paper disc impregnated with AmB; FIG. 2C
# Method: Disc diffusion assay. The assay was performed as previously described. National Committee for Clinical Laboratory Standards in Performance Standards for Antimicrobial Disk Susceptibility Tests; M2-A8 Approved Standard (NCCLS, Wayne) (2003).
# wild type S. cerevisiae = experiment: Growth of wild type cells treated with AmB; format: cell-based, Saccharomyces cerevisiae
# Text: as §1, §2
# [1] = test system: small molecule-rescued trk1Δtrk2Δ cells versus wild type; experiment: Probing sensitivities to known chemical inhibitors assay; format: cell-based, Saccharomyces cerevisiae; conditions: FIG. 3E legend
# Method: Probing sensitivities to known chemical inhibitors assay. Overnight cultures were grown as described in the MIC assay. Prior to harvesting cells, small molecules AmB, nystatin A1 (Riedel-de-Haen), candicidin (TOKU-E), or mepartricin (Santa Cruz Biotechnology) and chemical inhibitors nocodazole (Sigma-Aldrich), ebselen (Cayman Chemical), or bafilomycin BI (Santa Cruz Biotechnology were prepared as stock solutions in DMSO. Saturated cell cultures were centrifuged for 5 minutes at 1000×g. The supernatant was poured off, and cells were resuspended in sterile MilliQ water. Cells were centrifuged again, and supernatant was poured off. The wash step was repeated. The supernatant was poured off, and cells were resuspended in normal potassium YPAD. Cells were diluted with normal potassium YPAD to an OD600 of 0.01. Next, an appropriate volume of AmB, nystatin A1, candicidin, or mepartricin was added to give a final rescuing concentration of 125 nM, 1000 nM, 8 nM, and 8 nM, respectively. A control was prepared by adding the corresponding volume of DMSO to trk1Δtrk2Δ cells. 195 μL of WT+small molecule, 195 μL of trk1Δtrk2Δ+small molecule, and 195 μL of trk1Δtrk2Δ+DMSO were added to a 96 well plate. Next, 5 μL of DMSO or chemical inhibitor was added to each well, with each concentration tested in triplicate for both WT and trk1Δtrk2Δ . The plate was covered and incubated at 30° C. for 24 hours. A BioTek Synergy H1 Hybrid Reader was used to measure the OD600. Utilizing GraphPad PRISM, data were fitted by nonlinear regression, inhibition dose response, variable slope (four parameters) to yield EC50 values with SEM. For statistical analysis, EC50 values from the two treatment groups were compared by unpaired t-test.
# [2] = test system: CuFi-1 epithelial monolayers (CFTR-deficient human lung epithelia); experiment: Airway surface liquid (ASL) height studies by confocal fluorescence microscopy; format: cell-based
# Method: Human cell lines and growth conditions. NuLi and CuFi-1 cells were cultured at the air-liquid interface as previously described, using a 1:1 mixture of DMEM: Ham's F-12 supplemented with 2% v/v Ultroser G (Crescent Chemical). Zabner, J. et al. Am. J. Physiol. Lung Cell. Mol. Physiol. 284, […]-[…] (2003). The membrane supports used were Millicell 0.4 μm PCF inserts (Millipore PIHP01250) for Ussing chamber studies, Corning Costar 0.4 μm Transwell Clear Polyester Membrane inserts (Corning 3470) for rotational mucus transport studies, and Millicell 1.0 μm PCF inserts (Millipore PIRP15R48) for ASL studies. These membranes were allowed to mature at an air-liquid interface for a minimum of 14 days to reach full differentiation. Airway surface liquid (ASL) height studies. ASL height was studied using an established fluorescent dye assay. Worthington, E. N. et al. Methods Mol. Biol. 742, 77-92 (2011); Myerburg. M. M. et al. Am. J. Respir. Cell. Mol. Biol. 42, 676-684 (2010). Mature, differentiated membranes were grown on Millicell […] polyethylene terephthalate hanging cell culture inserts. Wild type (NuLi) lung epithelia were treated with perfluorocarbon (FC-72) vehicle, and CuFi epithelia were treated with vehicle or 500 nM AmB and incubated for 24 hours at 37° ° C. On the day of imaging. 2.5 μL of a 70 kDa Texas Red-dextran conjugate (Molecular Probes) solution in PBS was added to the apical side of the membranes, followed by 100 μL of FC-770 to prevent evaporation. These were placed on 100 μL of PBS on a 10 mm glass bottom Fluorodish for imaging (World Precision Instruments). Membranes were imaged immediately after dye addition and again at 24 hours to examine dye absorption. Three Z-stack images per membrane in biological n=6 were taken on an Zeiss LSM700 confocal microscope at 40× oil immersion. These images were analyzed using ImageJ to determine the area of fluorescence in the left hand 200-micron width of each image. Images were converted to 8-bit, Gaussian Blur was applied, and made binary. The parameters for Analyze Particles were particles from 1-Infinity μm^2 in size and from 0%-100% circularity.
compound,measurement,setting,value
"C[C@@H]1[C@H](O)[C@@H](C)/C=C/C=C/C=C/C=C/C=C/C=C/C=C/[C@H](O[C@@H]2O[C@H](C)[C@@H](O)[C@H](N)[C@@H]2O)C[C@@H]2O[C@](O)(C[C@@H](O)C[C@@H](O)[C@H](O)CC[C@@H](O)C[C@@H](O)CC(=O)O[C@H]1C)C[C@H](O)[C@H]2C(=O)O [AmB, amphotericin B]",trk1Δtrk2Δ yeast cell growth in broth dilution assay,trk1Δtrk2Δ yeast; at or above the minimum inhibitory concentration,no growth
same,trk1Δtrk2Δ yeast cell growth in broth dilution assay,"trk1Δtrk2Δ yeast; intermediate concentrations, normal potassium YPAD, FIG. 2D",dose-dependent increase of growth
same,growth rescue in disc diffusion assay,trk1Δtrk2Δ cells,dependence of the growth rescue on the concentration of AmB
same,growth stimulatory effects on wild type cells,wild type S. cerevisiae,no growth stimulatory effects
same,optimum rescue concentration for trk1Δtrk2Δ cells,[1],0.5 µM
same,apical surface liquid (ASL) volume of CF epithelia,[2]; 500 nM,normal ASL volume was restored
same,"ASL height of CuFi-1 epithelia, compound added apically","[2]; 500 nM AmB, 24 hours, FIGS. 5A, 5B",normal ASL height was restored
same,dose dependence of ASL restoration,"[2]; CuFi-1 epithelia, FIG. 5C",dose-dependent fashion
same,optimal dose for ASL restoration,"[2]; CuFi-1 epithelia, FIG. 5C",0.5 µM
same,"ASL height of CuFi-1 epithelia, compound added to the basolateral surface",[2]; FIG. 5B,no increase in ASL height
